The text below walks through data of PMC12635975, “Peptide-Based Fluorescent Biosensing System for the Detection of the Melanoma Biomarker S100B” (Bioconjugate Chemistry, 2025).

The test system of one assay is other S100 proteins. The conditions noted are these: unlike other peptides; ref literature (citation numbers not shown in text); cited from earlier work. The text has this: (§1) It interacts with S100B through a combination of hydrophobic and electrostatic interactions, stabilizing the protein structure and enhancing calcium-ion-binding affinity. […] By integrating TRTK12 into advanced optical biosensing systems, ...

Another assay concerns the target T1, S100B (Homo sapiens, UniProt P04271).
T1 construct: purchased Abbexa abx060130
T1 sequence (P04271 1-92): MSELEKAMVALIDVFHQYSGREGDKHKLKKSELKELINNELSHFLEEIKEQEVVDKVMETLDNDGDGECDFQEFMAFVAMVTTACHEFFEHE
As to conditions: ref literature (citation numbers not shown in text); read-out: binding affinity K d; cited from earlier work.
From the text: as §1

Assay [1] has as its target fluorescently labeled peptide-nucleic acid (PNA) beacon with the peptide TRTK12 as the biorecognition element. The assay can be described thus: other fluorescence titration; beacon fixed at 500 nM, S100B 0-100 nM; donor (5-FAM) emission of the FAM/Dabcyl FRET beacon, excitation 499 nm; 50 mM Tris-HCl pH 7.0, 240 mM NaCl, 20 mM CaCl2; 35 °C; 60 min incubation; two-site binding model fitted to the calibration curve.

Regarding TRTKIDWNKILS [TRTK12], the cross-reactivity result in the assay on other S100 proteins is listed as “minimal cross-reactivity with other S100 proteins”. For the same molecule, the Kd at S100B was approximately 260 nM.

B1: S100B protein (natural protein)
chain: MSELEKAMVALIDVFHQYSGREGDKHKLKKSELKELINNELSHFLEEIKEQEVVDKVMETLDNDGDGECDFQEFMAFVAMVTTACHEFFEHE
On to B1, for which, in assay [1], the half-saturation constant of the high-affinity site (two-site binding model) was 0.145 nM and the half-saturation constant of the lower-affinity site (two-site binding model) was determined as 364 nM.
